“Also recorded” adds a separate entry of the source. Where two headings read alike, the source gives them in different places.
Columns and labels:
[1] = system: primary cultured astrocyte; assay type: cell-based, mouse
GluR1-L497Y = GluR1-L497Y (Homo sapiens, UniProt P42261, L497Y); assay type: cell-based
astrocyte [2] = experiment: Fura-2 Ca2+ imaging of astrocyte during sniffer patch; assay type: cell-based, mouse; conditions: for TFLLR-induced astrocytic Ca2+ transient: TFLLR 500 μM, 100 ms
Protocol: On the day of sniffer-patch, cultured astrocytes (HEK cells added) were incubated with 5 μM Fura-2 AM (mixed with 5 μl of 20% Pluronic acid) (Invitrogen) for 40 min and washed at room temperature, and subsequently transferred to a microscope stage for imaging. External solution contained (in mM): 150 NaCl, 10 Hepes, 3 KCl, 2 CaCl2, 2 MgCl2, 5.5 glucose, pH adjusted to pH 7.3 and osmolarity to 325 mOsmol kg^−1. Intensity images of 510 nm wavelength were taken at 340 nm and 380 nm excitation wavelengths using either iXon EMCCD (DV887 DCS-BV, ANDOR technology). Two resulting images were used for ratio calculations in Axon Imaging Workbench version 6.2 (Axon Instruments). GluR1LY-mediated currents were recorded from HEK cells expressing GluR1L497Y under voltage clamp (Vh=−70 mV) using Multiclamp 700B amplifier (Molecular Devices), acquired with pClamp 9.2. Recording electrodes […] were filled with (mM): 110 Cs-Gluconate, 30 CsCl, 0.5 CaCl2, 10 Hepes, 4 Mg-ATP, 0.3 Na3-GTP and 10 BAPTA (pH adjusted to 7.3 with CsOH and osmolarity adjusted to 290-310 mOsm/kg with sucrose). For simultaneous recording, Imaging Workbench was synchronized with pClamp 9.2.

astrocyte [3] = assay type: cell-based, mouse

Chain of GluR1-L497Y (P42261 19-906 L497Y limits assumed): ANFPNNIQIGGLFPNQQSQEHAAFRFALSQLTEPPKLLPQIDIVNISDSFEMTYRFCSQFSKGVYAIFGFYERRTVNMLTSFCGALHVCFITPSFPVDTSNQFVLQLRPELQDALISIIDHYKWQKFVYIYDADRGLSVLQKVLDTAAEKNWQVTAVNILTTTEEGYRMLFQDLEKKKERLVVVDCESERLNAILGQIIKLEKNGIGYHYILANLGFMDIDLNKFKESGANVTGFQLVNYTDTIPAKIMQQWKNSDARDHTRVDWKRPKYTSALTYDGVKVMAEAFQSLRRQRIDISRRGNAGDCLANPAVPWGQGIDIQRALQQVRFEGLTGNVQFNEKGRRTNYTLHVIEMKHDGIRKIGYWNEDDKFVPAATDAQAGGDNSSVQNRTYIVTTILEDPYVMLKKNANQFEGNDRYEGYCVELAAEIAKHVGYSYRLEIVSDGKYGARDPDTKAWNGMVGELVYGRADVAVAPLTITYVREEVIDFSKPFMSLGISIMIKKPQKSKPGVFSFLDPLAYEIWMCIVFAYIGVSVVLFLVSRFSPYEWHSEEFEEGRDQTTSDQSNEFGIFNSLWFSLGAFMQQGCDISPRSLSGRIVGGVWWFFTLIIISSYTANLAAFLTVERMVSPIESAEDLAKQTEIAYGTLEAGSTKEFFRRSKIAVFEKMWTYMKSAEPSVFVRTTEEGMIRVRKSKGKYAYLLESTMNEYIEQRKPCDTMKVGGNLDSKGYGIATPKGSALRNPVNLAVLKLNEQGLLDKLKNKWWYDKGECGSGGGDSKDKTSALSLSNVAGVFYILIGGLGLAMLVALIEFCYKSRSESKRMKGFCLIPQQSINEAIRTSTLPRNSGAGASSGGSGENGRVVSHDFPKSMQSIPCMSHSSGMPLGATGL

Q: Which “fast and slow-modes of TFLLR-induced glutamate release (TFLLR-induced GluR1L497Y-mediated current)” value (“fast and slow-modes” below) [1] does the source give for O=C(O)c1cccnc1Nc1cccc(C(F)(F)F)c1 [NFA, Niflumic acid] here?
A: The value was “inhibit; also recorded: blocked”.

Q: What about the “1 mM glutamate-induced GluR1L497Y-mediated current of sensor cell” value (GluR1-L497Y) of the same molecule?
A: Its value is “does not affect”.

Q: How did the “fast and slow-modes” value [1] turn out when O=C(O)c1cc([N+](=O)[O-])ccc1NCCCc1ccccc1 [NPPB, 5-Nitro-2-(3-phenylpropylamino)benzoic Acid] was run?
A: The value was “blocked”.

Q: For CC(C)Cn1c(=O)n(C)c(=O)c2[nH]cnc21 [IBMX, 3-isobutyl-1-methylxanthine], which “fast-mode of TFLLR-induced glutamate release” value [1] is on record?
A: Its value is “does not affect”.

Q: For C=C[C@H]1C[N@@]2CC[C@H]1C[C@H]2[C@H](O)c1ccnc2ccc(OC)cc12 [quinine], which “fast and slow-modes” value [1] is on record?
A: The value was “inhibit; also recorded: blocked”.

Q: [Ba+2] [Ba^2+] was tested. Which “fast and slow-modes” value [1] did it give?
A: The value was “did not show any significant effect”.

Q: For [Cs+] [Cs^+], which “fast and slow-modes” value [1] is on record?
A: The value was “did not show any significant effect”.

Q: Which “fast and slow-modes” value [1] does the source give for N#Cc1cc2c(cc1[N+](=O)[O-])=NC(=O)C(=O)N=2 [CNQX, 6-cyano-7-nitroquinoxaline-2,3-dione] here?
A: Its value is “blocked”.

Q: And the “fast-mode of TFLLR-induced glutamate release” value [1]?
A: Its value is “blocked”.

Q: What about the “slow-mode of TFLLR-induced glutamate release” value [1] of the same molecule?
A: The value was “blocked”.

Q: For “C-terminus of Phosducin: C-terminus of mouse phosducin (251-278 a.a., SEQ ID NO: 6), over-expressed; inhibits Gαi-Gβγ dissociation”, which “fast-mode of TFLLR-induced glutamate release” value [1] is on record?
A: The value was “almost completely inhibited; also recorded: inhibition of the fast-mode”.

Q: And the “TFLLR-induced astrocytic Ca2+ transient” value (astrocyte [2])?
A: Its value is “without affecting”.

Q: And the “TFLLR-induced astrocytic Ca2+ transient” value (astrocyte [2]; listed as Phosducin C-terminal fragment)?
A: Its value is “do not inhibit”.

Q: Which “time from TFLLR to slow peak” value ([1]; n=31) does the source give for TFLLR-NH2 here?
A: The value was 32.8 ± 2.6 s.

Q: What about the “time from TFLLR to Ca2+ peak” value (astrocyte [2]; n=31) of the same molecule?
A: Its value is 10.8 ± 0.7 s.

Q: What about the “GluR1-mediated current induced in sensor HEK cell without astrocyte” value (GluR1-L497Y) of the same molecule?
A: Its value is “does not induce”.

Q: For OC[C@H]1O[C@@H](n2cnc3c(NC4CCCC4)nc(Cl)nc32)[C@H](O)[C@@H]1O [CCPA, 2-chloro-N(6)-cyclopentyladenosine], which “astrocytic Ca2+ increase induced by the agent itself” value (“astrocytic Ca2+ increase induced” for short) (astrocyte [2]; pressure-applied 100 ms) is on record?
A: Its value is “does not induce; also recorded: without a measurable Ca^2+ increase”.

Q: And the “fast-mode of glutamate release induced by the agent itself” value (“fast-mode of glutamate release induced” below) (astrocyte [3])?
A: The value was “induces mainly fast GluR1-mediated inward current; also recorded: activated a fast-mode; also recorded: induce fast-mode”.

Q: What about the “slow-mode of glutamate release induced by the agent itself” value (from here on “slow-mode of glutamate release induced”) (astrocyte [3]) of the same molecule?
A: The value was “without a measurable Ca^2+ increase or a slow-mode”.

Q: How did the “slow-mode of TFLLR-induced glutamate release” value [1] turn out when CC(=O)OCOC(=O)CN(CC(=O)OCOC(C)=O)c1ccccc1OCCOc1ccccc1N(CC(=O)OCOC(C)=O)CC(=O)OCOC(C)=O [BAPTA-AM, 1,2-bis-(o-inophenoxy)ethane-N,N,N′,N′-tetraacetic Acid Tetra-(acetoxymethyl) Ester] was run?
A: Its value is “significantly reduced”.

Q: What about the “TFLLR-induced astrocytic Ca2+ transient” value (astrocyte [2]) of the same molecule?
A: The value was “completely block; also recorded: eliminated”.

Q: CCCCC/C=C\C/C=C\C/C=C\C/C=C\CCCC(=O)NCCCl [ACEA, N-(2-Chloroethyl)-5Z,8Z,11Z,14Z-eicosatetraenamide] was tested. Which “astrocytic Ca2+ increase induced” value (astrocyte [2]) did it give?
A: Its value is “without a measurable Ca^2+ increase”.

Q: What about the “fast-mode of glutamate release induced” value (astrocyte [3]) of the same molecule?
A: Its value is “induces mainly fast-mode; also recorded: activated a fast-mode; also recorded: induce fast-mode”.

Q: What about the “slow-mode of glutamate release induced” value (astrocyte [3]) of the same molecule?
A: The value was “without a measurable Ca^2+ increase or a slow-mode”.

Q: With CC1(C)[C@@H](OC(=O)CCC(=O)O)CC[C@]2(C)[C@H]3C(=O)C=C4[C@@H]5C[C@@](C)(C(=O)O)CC[C@]5(C)CC[C@@]4(C)[C@]3(C)CC[C@@H]12 [CBX, Carbenoxolone] as the molecule, how does the “fast and slow-modes” value [1] read?
A: Its value is “does not inhibit; also recorded: did not show any significant effect”.

Q: What does the source list for C/C=C/[C@H]1O[C@@](O)([C@@H](C)[C@H](O)[C@H](C)[C@H]2OC(=O)/C(OC)=C/C(C)=C/[C@@H](C)[C@@H](O)[C@@H](CC)[C@@H](O)[C@H](C)C/C(C)=C/C=C/[C@@H]2OC)C[C@@H](O[C@H]2C[C@@H](O)[C@H](OC(N)=O)[C@@H](C)O2)[C@@H]1C [Concanamycin A]?
A: fast and slow-modes of TFLLR-induced glutamate release (TFLLR-induced GluR1L497Y-mediated current) [1]: appeared to block; 1 mM glutamate-induced GluR1L497Y-mediated current of sensor cell (GluR1-L497Y): reduced; surface expression of GluR1-L497Y in the sensor cell (GluR1-L497Y): almost completely eliminated

Q: With NCC(CC(=O)O)c1ccc(Cl)cc1 (centres unmarked) [Baclofen] as the molecule, how does the “astrocytic Ca2+ increase induced” value (astrocyte [2]; pressure-applied 100 ms) read?
A: The value was “without a Ca^2+ transient”.

Q: And the “astrocytic Ca2+ increase induced” value (astrocyte [2]; pressure-applied 100 ms, listed as baclofen)?
A: Its value is “without a measurable Ca^2+ increase”.

Q: And the “fast-mode of glutamate release induced” value (astrocyte [3])?
A: The value was “activated a fast-mode; also recorded: induces fast-mode”.

Q: And the “slow-mode of glutamate release induced” value (astrocyte [3])?
A: Its value is “without a measurable Ca^2+ increase or a slow-mode”.

Q: With CCCCC1(C2CCCC2)Cc2cc(OCCCC(=O)O)c(Cl)c(Cl)c2C1=O (centres unmarked) [DCPIB, 4-(2-butyl-6,7-dichloro-2-cyclopentylindan-1-on-5-yl)oxybutyric acid] as the molecule, how does the “fast and slow-modes” value [1] read?
A: Its value is “did not show any significant effect”.

Q: How did the “fast and slow-modes” value [1] turn out when O=S(=O)(O)c1cc(N=C=S)ccc1C=Cc1ccc(N=C=S)cc1S(=O)(=O)O [DIDS, 4,4′-Diisothiocyano-2,2′-stilbenedisulfonic acid] was run?
A: Its value is “inhibit; also recorded: blocked”.

Q: Which “TFLLR-induced astrocytic Ca2+ transient” value (astrocyte [2]) does the source give for “β-ARK-c term: C-terminus of Beta-adrenergic receptor kinase (SEQ ID NO: 5), over-expressed; inhibits Gβγ dissociation (WKKELRDAYREAQQLVQRVPKMKNKPRSVQRVPKMKNKPRS; B-Ark(Beta-adrenergic receptor kinase) C-terminus)” here?
A: Its value is “do not inhibit”.

Q: What about the “TFLLR-induced astrocytic Ca2+ transient” value (astrocyte [2]; listed as […]-ARK) of the same molecule?
A: The value was “without affecting”.

Q: For CC[N+](CC)(CC)CC [TEA], which “fast and slow-modes” value [1] is on record?
A: The value was “did not show any significant effect”.

B1: RGS-2: Regulatory G protein signaling 2, over-expressed; selectively inhibits the Gq subunit (protein, UniProt P41220 1-211, looked up)
Regulator of G-protein …: MQSAMFLAVQHDCRPMDKSAGSGHKSEEKREKMKRTLLKDWKTRLSYFLQNSSTPGKPKTGKKSKQQAFIKPSPEEAQLWSEAFDELLASKYGLAAFRAFLKSEFCEENIEFWLACEDFKKTKSPQKLSSKARKIYTDFIEKEAPKEINIDFQTKTLIAQNIQEATSGCFTTAQKRVYSLMENNSYPRFLESEFYQDLCKKPQITTEPHAT
Q: B1 was tested. Which “TFLLR-induced astrocytic Ca2+ transient” value (astrocyte [2]) did it give?
A: The value was “greatly and significantly reduced; also recorded: selectively and significantly inhibited”.

From patent US8871463B2, “Method for screening a glutamate release inhibitor in an astrocyte” (Korea Institute of Science and Technology, priority 2012, dated 2014)
